Reference: US11220661B2, “Compositions comprising taurate surfactants and methods of using the compositions” (Colgate-Palmolive Company, priority 2016, dated 2022)

What was measured:
[1] = tested on: proinflammatory cytokines IL-1a, IL-6, IL-8, TNF-a in 3D EpiDerm skin models; assay: Multiple inflammation biomarker assay on SDS-irritated 3D EpiDerm skin models; settings: for cytokine levels (IL-1a, IL-6, IL-8, TNF-a; FIGS. 2A-2D, % control): 0.02 wt. % SDS-irritated skin samples, 30 ul of 1% test solution in PBS topically for 1 hour, then 24 hours incubation, Milliplex assay
Procedure: To document the effect on skin inflammation, in vitro experiments using 3D EpiDerm skin models (SIT 200 skin irritation model, MatTek Corporation, Ashland, Mass.) were conducted. An irritant chemical, sodium dodecyl sulfate (0.02 wt. % SDS), was used to induce skin irritation in in vitro skin samples. After the inducement of skin irritation, the in vitro skin samples were each treated topically with one of two 30 ul test solutions (either a 1% Taurine in PBS solution or a 1% Sodium methyl oleoyl taurate in PBS solution) for 1 hour in a tissue culture incubator (37 degree C., 5% CO2). Following the incubation, the skin samples were washed with PBS and placed in a culture medium and further incubated for 24 hours. Tissue was harvested and homogenized for a multiple inflammation biomarker assay, testing levels of IL-1, IL-6, IL-8 and TNF-a. Biomarkers were analyzed by a Milliplex assay kit. (Millipore, Billerica, Mass.).
The irritant chemical, sodium dodecyl sulfate (SDS), that was used is commonly used as a […] control in irritation/inflammation assays on MatTek tissue. The multiple biomarker assay of Example 2 measured the levels of proinflammatory cytokines, including IL-1a, IL-6, IL-8, TNF-a, in one assay to evaluate the level of skin irritation/inflammation. The more cytokines released, the greater the irritation and/or inflammation potential.

HaCaT cells = assay: Cell migration assay (scratch gap closure); type: cell-based, human; settings: 0.01% by weight in DMEM culture medium, 24 hours, vs control medium
Procedure: Three different culture medium samples were prepared. A control medium that included a Dulbecco's modified Eagle's medium (DMEM) comprising actives of 10% Fetal Bovine Serum and 1% Penicillin Streptomycin; a taurine medium that was the same as the control medium but included 0.01% by weight Taurine; and a taurate medium that was the same as the control medium but included 0.01% by weight Sodium Methyl Oleoyl Taurate. To determine the effect of both Taurine (0.01%) and Sodium Methyl Oleoyl Taurate (0.01%) on the cellular repair function, in vitro experiments were conducted using HaCaT cells. HaCaT cells are a spontaneously transformed aneuploid immortal keratinocyte cell line from adult human skin. Three sample wells of the HaCaT cells were each grown until 100% confluent. After that, each well was scratched with a 1000 microliter (ul) tip (to create the gap) and washed twice with 1 milliliter (ml) of phosphate buffered saline (“PBS”) to eliminate dead floating cells. Following that, each one of the three sample wells were treated with 1 ml of one of the three culture medium samples: one with the control medium, one with the taurine (0.01%) medium, and one with the sodium methyl oleoyl taurate (0.01%) medium. Then, initial measurements of gap distance were taken using a microscope (OLYMPUS IX71). […]

[2] = tested on: IL-1a in 3D EpiDerm skin models; assay: Irritation biomarker (IL-1a) assay on 3D EpiDerm skin models; type: cell-based, human; settings: 6.8% in combar base, p-value of 0.03 vs combar base
Excerpt: Two separate combar samples were formulated, one with taurine and one with sodium methyl oleoyl taurate. Both the taurine and sodium methyl oleoyl taurate were formulated at the same molar concentration in the combar samples. The weight concentrations of taurine and methyl oleoyl taurate in their respective combar bases was as follows:
Taurine combar sample—2% Taurine (obtained from Qianjiang Yongan Pharmaceutical, Wuhan, China), 98% Combar;
Taurate combar sample—6.8% Sodium Methyl Oleoyl Taurate (obtained from Rhodia Solvay Group), 93.2% Combar.
Samples for testing were made by mixing the taurine combar and taurate combar in PBS (1% weight by volume combar base of each of the taurine combar and sodium methyl oleoyl taurate combar in PBS).
Separate In vitro skin samples were treated topically with 30 ul each of the taurine combar and taurate combar test samples for 1 hour in a tissue culture incubator. […] Tissue was harvested and homogenized for a IL-1a assay. IL-1a levels were analyzed using a Human IL-1 alpha/IL-1F1 Quantikine ELISA kit available from R&D Systems, Minneapolis, Minn. Among cytokines released along the inflammation pathway, IL-1a is recognized as a prominent irritation biomarker. The more IL-1a that is released, the greater is the irritation potential.
Thus, the combar base was used as a negative control on the MatTek tissue.

CCCCCCCCCCCCOS(=O)(=O)[O-].[Na+] [SDS, Sodium Dodecyl Sulfate]
expression of cytokines IL-1a, IL-6, IL-8 and TNF-a by the irritant ([1]; 0.02 wt. % SDS on 3D EpiDerm): induced

NCCS(=O)(=O)O [taurine, 2-aminoethylsulphonic acid]
cell migration rate (% reduction in gap distance, FIG. 1) (HaCaT cells): comparable enhancement in cell migration rate
cytokine levels (IL-1a, IL-6, IL-8, TNF-a; FIGS. 2A-2D, % control) [1]: suppressed

CCCCCCCC/C=C\CCCCCCCC(=O)N(C)CCS(=O)(=O)[O-].[Na+] [sodium methyl oleoyl taurate]
cell migration rate (% reduction in gap distance, FIG. 1) (HaCaT cells): comparable enhancement in cell migration rate
cytokine levels (IL-1a, IL-6, IL-8, TNF-a; FIGS. 2A-2D, % control) [1]: suppressed
irritation potential of the combar base [2]: significantly reduced
